Experimental data as given in patent US20260000710A1, “Novel Treatments for Cardiovascular Related Disease” (priority 2022, published 2026).

Tested on: AIM+ and AIM− CD4+ T cells from peptide-expanded PBMCs
Assay: TCRβ CDR3 sequencing (immunoSEQ) of sorted AIM+ and AIM− CD4+ T cells;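 also: genomic DNA from sorted cells as template, amplification bias-controlled two-step multiplex PCR, APOB6 pool at 10 µg/ml per peptide, CD40 blocking antibody added before restimulation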
Format: cell-based, human
Details: for Log10 Odds Ratio: AIM+ vs AIM−; for No. of clone-specific productive templates, AIM+ CD4+ T (Total 31354) / No. of clone-specific productive templates, AIM− CD4+ T (Total 48987) / No. of clone-specific productive templates, AIM+ CD4+ T (Total 34927) / No. of clone-specific productive templates, AIM− CD4+ T (Total 45364) / No. of clone-specific productive templates, AIM+ CD4+ T (Total 16700) / No. of clone-specific productive templates, AIM− CD4+ T (Total 21770) / No. of clone-specific productive templates, AIM+ CD4+ T (Total 25796) / No. of clone-specific productive templates, AIM− CD4+ T (Total 25928) / No. of clone-specific productive templates, AIM+ CD4+ T (Total 21697) / No. of clone-specific productive templates, AIM− CD4+ T (Total 49956) / No. of clone-specific productive templates, AIM+ CD4+ T (Total 18591) / No. of clone-specific productive templates, AIM− CD4+ T (Total 7206): PBMCs expanded 14 days and restimulated 24 h with APOB6
Protocol: To examine the clonotypic identities of autoreactive CD4^+ T cells, the hypervariable TCRβ DR3 region was sequenced using a DNA-based sequencing technique^42 (Adaptive Biotechnologies), which have been used to profile clonal populations of other self-antigen specific T cells^43. PBMCs from six HLA-typed donors (demographics and HLA-II alleles in Tables 5, 6) were expanded (14-days) and restimulated (24 h) with the APOB6 pool. To isolate viable responder and non-responder CD4^+ T cells from the same pool of stimulated PBMCs (schematic in FIG. 15A, gating strategy in FIG. 151B), the inventors used the AIM assay protocol (FIGS. 2A to 2D).
As a second control, unexpanded PBMCs (day 0 samples), sorted into naïve, central memory (TCM) and effector memory (TEM) CD4^+ T cells, were used (gating strategy in FIG. 15C). This allowed tracing the APOB6-specific AIM^+ T cell clones in naïve and memory T cell lineages. Genomic DNA, isolated from sorted AIM^− and AIM^+ Day 14 samples and naïve, TCM and TEM Day 0 samples from six donors, was used as the starting material for TCRVβ sequencing (schematic in FIG. 15A) using an optimized two-step, amplification bias-controlled multiplex-PCR-based approach^42,44 (immunoSEQ Human TCRB Assay, Adaptive Biotechnologies).
For isolation of APOB epitope-specific CD4^+ T cells, PBMCs were expanded with the APOB6pool (10 μg/ml per peptide). On Day 14, cultured cells were washed and re-stimulated with APOB6 (10 μg/ml) for 24 h (AIM assay protocol). 1 μg/ml of CD40 blocking antibody was added 15 min before stimulation. At the end of the stimulation period, cells were washed with FACS buffer (PBS w/o Ca/Mg, 2% FCS). Day 14 (APOB6 expanded and restimulated) and Day 0 (ex vivo samples with no in vitro stimulation) PBMC samples from six donors were resuspended in a staining master mix containing anti-human Fc-Block (Biolegend), fixable viability dye and antibodies against T cell and non-T cell (Dump) surface markers, activation markers and memory markers (antibody details in Table 4). Viability dye was used at 1:1000 dilution, antibodies were used at a final dilution of 1:100 (activation markers) and 1:200 (other extracellular markers). […] Gates were set based on unstimulated and PHA-L stimulated negative and positive controls, respectively. Antigen-specific AIM^+ and non-specific control AIM^− CD4^+ T cells from Day 14 samples and naïve (CD45RA^+CCR7^+), central memory (CD45RA^−CCR7^+, TCM) and effector memory (CD45RA^−CCR7^−, TEM) CD4^+ T cells from Day 0 PBMCs were sorted into HEPES-containing buffer (PBS with 2% FBS and 0.025 M HEPES) using BD FACSAria flow cytometry sorters. Acquired data was analyzed with FlowJo software.
Genomic DNA was extracted from sorted cells using QIAamp DNA Micro Kit (QIAGEN) and sent to Adaptive Biotechnologies for survey-level TCRβ sequencing (depth ˜60,000 reads) using their established immunoSEQ platform^7. Briefly, highly variable CDR3 regions on somatically rearranged human TCRβ chains were amplified with a two-step multiplex PCR approach using optimized set of primers that target the VDJ region spanning each unique CDR3B. A synthetic repertoire containing all possible V/J templates is used as a built-in control to quantify and correct PCR amplification biases. Processing of raw Illumina sequence reads, filtering, demultiplexing, clustering and mapping of CDR3 sequences and annotation of VDJ genes using IMGT database sequences were performed at Adaptive Biotechnologies and made available for download and analysis.

CASRKTGSLYGYTF: TCRβ CDR3 clone, TCRBV27-01+TCRBJ01-02, Donor 5
Log10 Odds Ratio (Donor 5): 11.80 | No. of clone-specific productive templates, AIM+ CD4+ T (Total 31354) (Donor 5): 411 | No. of clone-specific productive templates, AIM− CD4+ T (Total 48987) (Donor 5): 0

CASSIPQGSGSPLHF: TCRβ CDR3 clone, TCRBV05-06+TCRBJ01-06, Donor 6; top-ranked APOB6-specific rearrangement
Log10 Odds Ratio (Donor 6): 2.41 | No. of clone-specific productive templates, AIM+ CD4+ T (Total 34927) (Donor 6): 9283 | No. of clone-specific productive templates, AIM− CD4+ T (Total 45364) (Donor 6): 63

CASSPGREPGNTIYF: TCRβ CDR3 clone, TCRBV07-09+TCRBJ01-03, Donor 5
Log10 Odds Ratio (Donor 5): 0.57 | No. of clone-specific productive templates, AIM+ CD4+ T (Total 31354) (Donor 5): 422 | No. of clone-specific productive templates, AIM− CD4+ T (Total 48987) (Donor 5): 179

CATSEPGPLNQPQHF: TCRβ CDR3 clone, TCRBV24-01+TCRBJ01-05, Donor 3
Log10 Odds Ratio (Donor 3): 1.62 | No. of clone-specific productive templates, AIM+ CD4+ T (Total 16700) (Donor 3): 348 | No. of clone-specific productive templates, AIM− CD4+ T (Total 21770) (Donor 3): 11

CASRETGGAGELFF: TCRβ CDR3 clone, TCRBV06-05+TCRBJ02-02, Donor 6
Log10 Odds Ratio (Donor 6): 2.71 | No. of clone-specific productive templates, AIM+ CD4+ T (Total 34927) (Donor 6): 393 | No. of clone-specific productive templates, AIM− CD4+ T (Total 45364) (Donor 6): 1

CASSYGGGPPDTQYF: TCRβ CDR3 clone, TCRBV06-06+TCRBJ02-03, Donor 5
Log10 Odds Ratio (Donor 5): 2.34 | No. of clone-specific productive templates, AIM+ CD4+ T (Total 31354) (Donor 5): 810 | No. of clone-specific productive templates, AIM− CD4+ T (Total 48987) (Donor 5): 6

CASSAMVEQPQHF: TCRβ CDR3 clone, TCRBV06-X+TCRBJ01-05, Donor 4
Log10 Odds Ratio (Donor 4): 0.55 | No. of clone-specific productive templates, AIM+ CD4+ T (Total 25796) (Donor 4): 1709 | No. of clone-specific productive templates, AIM− CD4+ T (Total 25928) (Donor 4): 503

CASSFVDSPESYEQYF: TCRβ CDR3 clone, TCRBV12-X+TCRBJ02-07, Donor 1
Log10 Odds Ratio (Donor 1): 2.01 | No. of clone-specific productive templates, AIM+ CD4+ T (Total 21697) (Donor 1): 486 | No. of clone-specific productive templates, AIM− CD4+ T (Total 49956) (Donor 1): 11

CSVLQHEQYF: TCRβ CDR3 clone, TCRBV29-01+TCRBJ02-07, Donor 4
Log10 Odds Ratio (Donor 4): 0.49 | No. of clone-specific productive templates, AIM+ CD4+ T (Total 25796) (Donor 4): 466 | No. of clone-specific productive templates, AIM− CD4+ T (Total 25928) (Donor 4): 153

CASSYRQTNQPQHF: TCRβ CDR3 clone, TCRBV06-02/06-03+TCRBJ01-05, Donor 4
Log10 Odds Ratio (Donor 4): 12.14 | No. of clone-specific productive templates, AIM+ CD4+ T (Total 25796) (Donor 4): 509 | No. of clone-specific productive templates, AIM− CD4+ T (Total 25928) (Donor 4): 0

CASRTIGQGSFNYGYTF: TCRβ CDR3 clone, TCRBV27-01+TCRBJ01-02, Donor 1
Log10 Odds Ratio (Donor 1): 2.78 | No. of clone-specific productive templates, AIM+ CD4+ T (Total 21697) (Donor 1): 257 | No. of clone-specific productive templates, AIM− CD4+ T (Total 49956) (Donor 1): 1

CASSYSSGGGNEQFF: TCRβ CDR3 clone, TCRBV06-05+TCRBJ02-01, Donor 1
Log10 Odds Ratio (Donor 1): 2.61 | No. of clone-specific productive templates, AIM+ CD4+ T (Total 21697) (Donor 1): 348 | No. of clone-specific productive templates, AIM− CD4+ T (Total 49956) (Donor 1): 2

CASSQEVGGDHGYTF: TCRβ CDR3 clone, TCRBV04-03+TCRBJ01-02, Donor 3
Log10 Odds Ratio (Donor 3): 2.41 | No. of clone-specific productive templates, AIM+ CD4+ T (Total 16700) (Donor 3): 759 | No. of clone-specific productive templates, AIM− CD4+ T (Total 21770) (Donor 3): 4

CASSLPRDRDYGYTF: TCRβ CDR3 clone, TCRBV06-02+TCRBJ01-02, Donor 3
Log10 Odds Ratio (Donor 3): 2.55 | No. of clone-specific productive templates, AIM+ CD4+ T (Total 16700) (Donor 3): 269 | No. of clone-specific productive templates, AIM− CD4+ T (Total 21770) (Donor 3): 1

CASSTTGLAAYNEQFF: TCRβ CDR3 clone, TCRBV19-01+TCRBJ02-01, Donor 1
Log10 Odds Ratio (Donor 1): 1.97 | No. of clone-specific productive templates, AIM+ CD4+ T (Total 21697) (Donor 1): 519 | No. of clone-specific productive templates, AIM− CD4+ T (Total 49956) (Donor 1): 13

CASSSSGSNYNEQFF: TCRβ CDR3 clone, TCRBV03-01/03-02+TCRBJ02-01, Donor 3
Log10 Odds Ratio (Donor 3): 1.19 | No. of clone-specific productive templates, AIM+ CD4+ T (Total 16700) (Donor 3): 597 | No. of clone-specific productive templates, AIM− CD4+ T (Total 21770) (Donor 3): 52

CASSSLTPEAYGYTF: TCRβ CDR3 clone, TCRBV28-01+TCRBJ01-02, Donor 2
Log10 Odds Ratio (Donor 2): 2.21 | No. of clone-specific productive templates, AIM+ CD4+ T (Total 18591) (Donor 2): 796 | No. of clone-specific productive templates, AIM− CD4+ T (Total 7206) (Donor 2): 2

CASRTTTGFLSPLHF: TCRβ CDR3 clone, TCRBV27-01+TCRBJ01-06, Donor 3
Log10 Odds Ratio (Donor 3): 1.86 | No. of clone-specific productive templates, AIM+ CD4+ T (Total 16700) (Donor 3): 273 | No. of clone-specific productive templates, AIM− CD4+ T (Total 21770) (Donor 3): 5

CASSLAGTGTNEQFF: TCRβ CDR3 clone, TCRBV05-01+TCRBJ02-01, Donor 1
Log10 Odds Ratio (Donor 1): 2.97 | No. of clone-specific productive templates, AIM+ CD4+ T (Total 21697) (Donor 1): 396 | No. of clone-specific productive templates, AIM− CD4+ T (Total 49956) (Donor 1): 1

CSAREPHDTSTDTQYF: TCRβ CDR3 clone, TCRBV20-X+TCRBJ02-03, Donor 2
Log10 Odds Ratio (Donor 2): 11.98 | No. of clone-specific productive templates, AIM+ CD4+ T (Total 18591) (Donor 2): 338 | No. of clone-specific productive templates, AIM− CD4+ T (Total 7206) (Donor 2): 0

CASSKVNEKLFF: TCRβ CDR3 clone, TCRBV03-01/03-02+TCRBJ01-04, Donor 2
Log10 Odds Ratio (Donor 2): 1.19 | No. of clone-specific productive templates, AIM+ CD4+ T (Total 18591) (Donor 2): 361 | No. of clone-specific productive templates, AIM− CD4+ T (Total 7206) (Donor 2): 9
